According to patent US20260335294A1, “TREATING CONGENITAL DISORDERS OF GLYCOSYLATION” (Mayo Foundation for Medical Education and Research, priority 2022, published 2026):
Entries after “also recorded” stand apart in the source; their conditions may differ.

Columns and labels:
[1] = system: PMM2-CDG and healthy fibroblasts; assay: Metabolomic profiling (LC/MS, GC/MS) of fibroblasts treated with epalrestat; assay type: cell-based, human
Protocol: Patient (P1-P6) and control fibroblasts were obtained by a skin punch biopsy. Fibroblasts were maintained in low glucose DMEM (Gibco) supplemented with 10% FBS in an incubator at 37 °C, 5% CO2, no longer than two months or until they reached passage 15 to avoid senescence. Routine mycoplasma testing was performed.
Briefly, 15,000 fibroblasts were plated in 1.5 mL DMEM (Gibco, 5.5 mM glucose, 2 mM glutamine, 10% FBS) per well in two 6-well plates. The medium change was performed on day 2 and day 4. On day 6, the medium was removed, cells were washed with ice-cold 0.9% NaCl (Sigma) (physiological solution) and 250 μL of extraction buffer (80% MeOH, IS) was added to the cells. Next, cells were scraped and the cell extracts transferred to 1.5 mL Eppendorf tubes and placed overnight at −80 °C. Next, samples were centrifuged at 15,000 rpm, 4 °C, 20 minutes. The supernatant was transferred to a vial for direct analysis by LC/MS, while 100 μL of 200 mM NaOH was added to the (protein) pellet. Pellets were incubated at 95 °C for 30 minutes after which they were centrifuged at 5,000 rpm, 4 °C, 10 minutes. Supernatant was used to determine protein concentration by BCA protein assay kit (Pierce).
(§1) Fibroblasts were plated in 6-well plates for LC/MS and T75 flasks for GC/MS analysis as described above. After 24 hours, medium was removed and cells washed with PBS. Then, DMEM containing 5.5 mM glucose, 2 mM glutamine, and 10% dialyzed FBS was added. Epalrestat was freshly prepared and fibroblasts were supplemented with 10 μM epalrestat daily. After 48 hours media was changed, and 48 hours after that, metabolites were extracted and measured by both LC/MS and GC/MS. Zebrafish embryos were genotyped at 2 days post fertilization (dpf), and were treated by adding the epalrestat (solubilized in DMSO) directly into the embryo media at 5 dpf. Control embryos were similarly treated with DMSO alone. Embryos were harvested for metabolic analyses 24 hours posttreatment. The final concentration of DMSO was equivalent between control and treatment, never exceeding 0.5%.
An ion-pairing liquid chromatography column (C18) was used to separate 10 μL of sample, after which the metabolites were resolved on a Thermo Fisher Q-Exactive Hybrid Quadrupole-Orbitrap Mass Spectrometer (negative ion mode). The ESI settings were as follows: 50 sheet gas flow rate, auxiliary gas flow rate 15, spray voltage of 4 kV, S-lens RF level of 60, and the capillary temperature at 350 °C. A full scan (resolution 140,000 at 200 m/z, AGC at 3 e6, 512 ms ion fill time, and 70-850 m/z scan range) was performed. The metabolites were identified according to their elution time and m/z ratios by using in-house metabolite standard library and El-Maven v0. 12.0/Polly™ Labeled LC-MS Workflow or Thermo Fisher Xcalibur software. The correction of naturally occurring carbon isotopes was also performed. Relative metabolite abundances were normalized to the internal standard and protein content.
For GC/MS measurements of hexose-P, hexose-bisphosphates, hexose and polyols, fibroblasts were cultured in a similar fashion as for LC/MS with the following adjustments: 1) an appropriate number of fibroblasts was plated in T75 flasks instead of 6-well plates to ensure the optimal amount of metabolite concentration necessary for GC/MS; 2) metabolites were extracted from cells with 2 mL 80% MeOH, IS and the supernatant was transferred to a fresh 2 mL Eppendorf tube. Standards containing metabolites of interest were prepared simultaneously and dried overnight together with cellular extracts by vacuum centrifugation at 4 °C. The following day, 20 μL of methoxyamine (MOX) (Sigma Aldrich) was added to the samples and they were incubated for 90 minutes at 37 °C. Next, 60 μL of N,O-bis(trimethylsilyl)trifluoroacetamide (TMS) (Sigma Aldrich) was added to the samples, which were then incubated at 60 °C for 30 minutes. Samples were kept overnight in a dry and cool place to allow further derivatization with TMS. […]

[2] = system: aldose reductase (AR); settings: role: inhibitor; cited from earlier work
[3] = system: patient fibroblasts and healthy controls; assay: Quantification of NADPH and NADP; assay type: cell-based, human; settings: 10 μM, 24 h
Protocol: Fibroblasts from three patient fibroblasts (P2, P4, P5) and two healthy controls were plated on day 1. The next day medium was changed. The cells were grown in the presence and absence of […] epalrestat for another 24 hours. The medium was then removed, cells were washed with cold saline solution (0.9% NaCl) and 250 μL of extraction buffer (50% MeOH, 30% acetonitrile, 20% H2O Tris-HCl pH 7.6) was added to the cells. The metabolites were precipitated overnight at −80 °C, samples were centrifugated at 20,000 rpm, 20 minutes, 4 °C, and supernatant was transferred to a fresh vial. Pellets were used for determination of protein concentration. Supernatant containing metabolites was analyzed by LC/MS less than 24 hours after the initial collection to avoid degradation of NADPH into NADP. Relative abundance of NADP and NADPH was obtained. […]

[4] = system: PMM2-CDG fibroblasts; settings: cited from earlier work
[5] = system: PMM2-CDG; settings: Ligezka et al 2021; cited from earlier work
[6] = system: pmm2 mutant zebrafish; assay: Metabolomic profiling of zebrafish treated with epalrestat; assay type: in vivo; settings: 5 dpf embryos, single dose 10 μM or 40 μM, 24 hours
Protocol: Animals were maintained according to standard protocols. The zebrafish strains were obtained from the Zebrafish International Resource Center (ZIRC, Eugene, OR). Pmm2sa10150 mutant zebrafish were established as described elsewhere (Klaver et al., JCI Insight, 6(24):e153474 (2021)).
10 embryos per sample were homogenized by sonication in extraction buffer (80% MeOH, IS). The metabolites were then precipitated at −80 °C overnight, after which the samples were centrifuged at 15,000 rpm, 20 minutes, 4 °C. Next, the supernatant was transferred to a fresh Eppendorf tube. The samples were centrifuged again at 15,000 rpm, 20 minutes, 4 °C to remove any leftover impurities and transferred to a fresh MS vial. Finally, the samples were analyzed by LC/MS.
as §1, with “Control embryos were similarly treated with DMSO alone. Embryos were harvested for metabolic analyses 24 hours posttreatment. The final concentration of DMSO was equivalent between control and treatment, never exceeding 0.5%.” left out

[7] = 10 μM daily, patient fibroblasts

CC(/C=C1\SC(=S)N(CC(=O)O)C1=O)=C\c1ccccc1 [epalrestat]
CMP-sialic acid abundance ([1]; 10 μM daily): increased | UDP-HexNAc abundance ([1]; 10 μM daily): increased | UDP-hexose abundance ([1]; 10 μM daily): increased | glucose-1-P abundance ([1]; 10 μM daily): increased | hexosamine-P abundance ([1]; 10 μM daily): increased | hexose-P abundance ([1]; 10 μM daily): increased | pentose-P abundance ([1]; 10 μM daily): increased | sedoheptulose-7-P abundance ([1]; 10 μM daily): increased | Glc-1,6-P2 abundance ([1]; 10 μM daily, PMM2-CDG fibroblasts): increased; also recorded: significantly increase | mannitol abundance ([1]; 10 μM daily, intracellular): reduced in the majority of patient fibroblasts | sorbitol abundance ([1]; 10 μM daily, intracellular): significantly reduced; also recorded: significantly decreased | overall polyol pool ([1]; 10 μM daily, patient and control cell lines, dialyzed FBS): reduced; also recorded: significantly decreased | GDP-mannose abundance [1, 7]: increased; also recorded: significantly increase | man-1-P abundance [1, 7]: increased; also recorded: significantly increase | mannose-6-P abundance [1, 7]: increased; also recorded: significantly increase | GDP-mannose levels vs controls ([1]; patient fibroblasts, epalrestat alone): never reached the same levels as the ones seen in controls | mode of inhibition of AR [2]: non-competitive inhibitor | NADP abundance [3]: decreased | NADPH abundance [3]: increased | NADPH/NADP ratio ([3]; PMM2-CDG n=3, control n=2): increased | overall glycosylation as assessed by glycoproteomics ([4]; PMM2-CDG fibroblasts): overall glycosylation improvement | glycosylation in vitro ([4]; PMM2-CDG, Ligezka et al 2021): improved glycosylation | glycosylation in vivo [5]: improved glycosylation | GDP-mannose level [6]: increased | polyol levels [6]: reduced
